The subject of assay [1] is female rats. Kind of assay: Antidiuretic action in water-loaded rats, urine collected for 2 hours (single agent). Conditions: oral water load 25 mL/kg, FIG. 1 / FIG. 2; for antidiuretic action: intravenous dose series; for reduction of the urinary volume at the maximum: intravenous. The format is in vivo, rat. How it is done:
A method according to Watanabe et al. (Watanabe et al 2013 Antidiuretic effect of antimuscanrinic agents in rat model depends on C-fibre afferent nerves in the bladder. BJU Int 112(1) 131-6) was carried out with a partial modification. Female rats (10 to 11-week-old, obtained from Charles River Laboratories Japan) were intravenously administered (1 mL/kg) with a vehicle (saline) or imidafenacin ([…]) and subjected to an oral water load (25 mL/kg). After the rats were transferred to Bollmann cages, urine was collected for 2 hours from each rat via a catheter previously inserted and fixed to the bladder apex of the rat (8 rats in each group). The method according to Watanabe et al. (Watanabe et al 2013 Antidiuretic effect of antimuscanrinic agents in rat model depends on C-fibre afferent nerves in the bladder. BJU Int 112(1) 131-6) was carried out with a partial modification. Female rats (10 to 11-week-old, obtained from Charles River Laboratories Japan) were intravenously administered (1 mL/kg) with a vehicle (saline) or desmopressin ([…]) and subjected to an oral water load (25 mL/kg). After the rats were transferred to Bollmann cages, urine was collected for 2 hours from each rat via a catheter previously inserted and fixed to the bladder apex of the rat (8 rats in each group).

Assay [2] concerns female rats. Kind of assay: Effect of mozavaptan (V2 antagonist) on antidiuretic action in water-loaded rats. The format is in vivo, rat. The method, then: The method according to Watanabe et al. (Watanabe et al 2013 Antidiuretic effect of antimuscanrinic agents in rat model depends on C-fibre afferent nerves in the bladder. BJU Int 112(1) 131-6) was carried out with a partial modification. Female rats (10 to 11-week-old, obtained from Charles River Laboratories Japan) were intravenously administered with a vehicle (dimethylformamide or saline); mozavaptan (a dose of 0.1 mL/kg of a 30 mg/mL solution); 3 mg/kg of mozavaptan and imidafenacin (10 μg/kg or 300 μg/kg); 3 mg/kg of mozavaptan and desmopressin (0.003 μg/kg or 0.1 μg/kg); or 3 mg/kg of mozavaptan, imidafenacin (10 μg/kg or 300 μg/kg) and desmopressin (0.003 μg/kg or 0.1 μg/kg), and subjected to an oral water load (25 mL/kg). After the rats were transferred to Bollmann cages, urine was collected for 2 hours from each rat via a catheter previously inserted and fixed to the bladder apex of the rat (8 rats in each group).

Assay [3] deals with vasopressin. Conditions: rat; previous report BJU Int 112(1) 131-6; cited from earlier work.

Turning to `NC(=O)CC[C@@H]1NC(=O)[C@H](Cc2ccccc2)NC(=O)[C@H](Cc2ccc(O)cc2)NC(=O)CCSSC[C@@H](C(=O)N2CCC[C@H]2C(=O)N[C@H](CCCN=C(N)N)C(=O)NCC(N)=O)NC(=O)[C@H](CC(N)=O)NC1=O` [desmopressin], in assay [1], the antidiuretic action result is “dose-dependent manner” and the “reduction of the urinary volume at the maximum” value is given as “about 100%”. Also, the “antidiuretic action of desmopressin at the maximum reaction dose in the presence of mozavaptan” value in assay [2] (desmopressin 0.1 μg/kg with 3 mg/kg of mozavaptan, intravenous, FIG. 4) was “recovered”. For the same molecule, the “antidiuretic action of desmopressin in the presence of mozavaptan” value in assay [2] (desmopressin with 3 mg/kg of mozavaptan, intravenous, FIG. 4) is given as “also suppressed”.
Turning to `Cc1nccn1CCC(C(N)=O)(c1ccccc1)c1ccccc1` [imidafenacin], in assay [1], the antidiuretic action result is on record as “dose-dependent manner” and the “reduction of the urinary volume at the maximum” value is reported as “about 50%”. In addition, in assay [2] (imidafenacin 300 μg/kg added to 3 mg/kg mozavaptan and 0.1 μg/kg desmopressin, FIG. 5), the “antidiuretic action on addition of imidafenacin to the mozavaptan and desmopressin group” value was “further enhanced”. Further, in assay [2] (imidafenacin at the maximum reaction dose of 300 μg/kg with 3 mg/kg of mozavaptan, intravenous, FIG. 4), the “antidiuretic action of imidafenacin in the presence of mozavaptan” value was “completely suppressed”. Also, in assay [3], the release of vasopressin entry is “not affected”.

Values taken from patent US10517851B2, “Vasopressin-like action enhancer” (KYORIN PHARMACEUTICAL CO., LTD., priority 2015, dated 2019).
